Tests used:
[1] = system: S. aureus; settings: free Ponericin; cited from earlier work
[2] = system: S. aureus; test: Staphyloccocus aureus macrodilution assay; assay type: cell-based, Staphylococcus aureus
Experimental: Staphyloccocus aureus macrodilution assays. All liquid assays were performed in cation-adjusted Mueller Hinton Broth II (CMHB). Qualitative assays were performed following standard macrodilution methods as outlined by the National Committee on Clinical Laboratory Standards (Standards, N. C. f. C. L. Journal, 1999, Approved standard M26-A) with a challenge of 10^5 CFU/mL. For assays involving co-incubation with films deposited on silicon, 24-well plates were used, with 0.5 mL of liquid culture per well. Briefly, each square-cut silicon substrate (1.0 cm×1.0 cm), either bare or coated depending on the test group, was placed flat in the center of a well in a 24-well plate, polished side up. Each well was then filled with 0.50 mL of S. aureus in exponential growth phase at 10^5 CFU/mL in CMHB, completely immersing the substrate. Quantitative assays were done in 96-well plates with 150 μL of liquid culture per well, with 135 μL of test media and 15 μL of inoculation culture at 10^6 CFU/mL in CMHB. All test media were sterile-filtered through 0.2 μm membranes prior to use. […] Cell density was read at OD 600 nm in a BioTek® PowerWave™ XS Microplate Spectrophotometer with accompanying Gen5 program Version 1.00.14. […]
Antimicrobial activity of Ponericin as released from LbL assemblies. In vitro activity of Ponericin, both in dipping solution and as released from films, were assessed against S. aureus. […]

## Ponericin G1
[1]
  reported MIC: 4 to 8 µg/mL
[2]; dipping solution: free Ponericin in 0.1M sodium acetate (FIG. 7A)
  concentration needed to inhibit S. aureus proliferation: 11 to 22 µg/mL
[2]; film-released: elution buffer of [(Poly 1/HA)(Pon/HA)]100 (FIG. 7B)
  concentration needed to inhibit S. aureus proliferation: 11 to 22 µg/mL
